The source made the active and inactive calls. The rule behind the calls is not given here.
How the values were obtained:
[1] = biological target: T1, RAC-gamma serine/threonine-protein kinase (Homo sapiens, UniProt Q9Y243); experiment: Induction of AKT3 degradation in human NCI-H1975 cells assessed as reduction in AKT3 protein level at 1000 nM incubated for 24 hrs under serum free medium by Western blot analysis relative to control; format: cell-based
[2] = biological target: RAC-alpha serine/threonine-protein kinase (Homo sapiens, UniProt P31749); experiment: Induction of AKT1 degradation in human NCI-H1975 cells assessed as reduction in AKT1 protein level incubated for 24 hrs under serum free medium by Western blot analysis; format: cell-based
[3] = biological target: T1, RAC-gamma serine/threonine-protein kinase; experiment: Induction of AKT3 degradation in human NCI-H1975 cells assessed as reduction in AKT3 protein level incubated for 24 hrs under serum free medium by Western blot analysis; format: cell-based
[4] = biological target: RAC-beta serine/threonine-protein kinase (Homo sapiens, UniProt P31751); experiment: Induction of AKT2 degradation in human NCI-H1975 cells assessed as reduction in AKT2 protein level incubated for 24 hrs under serum free medium by Western blot analysis; format: cell-based
[5] = tested on: NCI-H1975; experiment: Antiproliferative activity against human osimertinib resistant NCI-H1975 cells assessed as reduction in cell viability measured after 24 hrs by CCK-8 assay; format: functional, cell-based; details: NCI-H1975, 24 h
[6] = biological target: Epidermal growth factor receptor (Homo sapiens, UniProt P00533); experiment: Inhibition of EGFR in human NCI-H1975 cells; format: cell-based
[7] = biological target: T1, RAC-gamma serine/threonine-protein kinase; experiment: Binding affinity to full length N-terminal His6-sumo tagged AKT3 (unknown origin) expressed Escherichia coli BL21 (DE3) cells by pull-down/ Western blot analysis
[8] = biological target: T1, RAC-gamma serine/threonine-protein kinase; experiment: Binding affinity to full length N-terminal His6-sumo tagged AKT3 (unknown origin) expressed Escherichia coli BL21 (DE3) cells incubated for 2 hrs by pull-down/ LC-MS analysis
[9] = biological target: Epidermal growth factor receptor (Homo sapiens, UniProt P00533, T790M); experiment: Inhibition of EGFR T790M mutant in human NCI-H1975 cells incubated for 24 hrs under serum free medium by Western blot analysis; format: cell-based
Sequence of Epidermal growth factor receptor (Homo sapiens, UniProt P00533, T790M) (P00533 25-1210 T790M limits assumed): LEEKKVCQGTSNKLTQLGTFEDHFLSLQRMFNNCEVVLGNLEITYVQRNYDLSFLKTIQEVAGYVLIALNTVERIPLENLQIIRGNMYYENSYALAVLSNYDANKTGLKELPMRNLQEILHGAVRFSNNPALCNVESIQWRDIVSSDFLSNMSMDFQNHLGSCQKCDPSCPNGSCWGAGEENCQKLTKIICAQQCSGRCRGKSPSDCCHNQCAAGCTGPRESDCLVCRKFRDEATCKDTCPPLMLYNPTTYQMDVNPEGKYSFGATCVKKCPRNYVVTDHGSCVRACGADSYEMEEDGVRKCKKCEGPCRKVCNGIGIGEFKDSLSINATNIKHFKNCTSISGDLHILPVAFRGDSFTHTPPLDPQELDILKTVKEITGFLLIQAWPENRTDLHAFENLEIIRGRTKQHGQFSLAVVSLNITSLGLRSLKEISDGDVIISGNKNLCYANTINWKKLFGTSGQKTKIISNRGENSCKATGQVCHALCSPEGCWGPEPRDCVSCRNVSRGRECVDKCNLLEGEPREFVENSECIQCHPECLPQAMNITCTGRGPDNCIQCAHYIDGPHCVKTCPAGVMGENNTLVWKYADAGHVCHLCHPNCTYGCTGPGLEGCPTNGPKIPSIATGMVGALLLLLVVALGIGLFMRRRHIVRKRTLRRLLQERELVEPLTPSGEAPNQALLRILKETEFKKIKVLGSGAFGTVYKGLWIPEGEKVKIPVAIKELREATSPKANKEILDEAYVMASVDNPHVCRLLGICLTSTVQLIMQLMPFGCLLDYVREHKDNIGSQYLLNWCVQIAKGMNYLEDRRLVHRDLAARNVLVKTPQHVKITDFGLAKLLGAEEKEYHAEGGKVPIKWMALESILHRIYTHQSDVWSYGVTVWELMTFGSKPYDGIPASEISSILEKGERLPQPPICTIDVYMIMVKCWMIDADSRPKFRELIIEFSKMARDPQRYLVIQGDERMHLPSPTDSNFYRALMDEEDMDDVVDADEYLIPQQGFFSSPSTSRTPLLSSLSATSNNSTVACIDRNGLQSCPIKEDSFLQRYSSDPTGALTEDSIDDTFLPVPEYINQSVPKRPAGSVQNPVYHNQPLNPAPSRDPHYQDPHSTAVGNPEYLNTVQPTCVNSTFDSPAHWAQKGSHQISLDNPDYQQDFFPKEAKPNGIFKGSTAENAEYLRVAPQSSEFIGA

Sequence of RAC-alpha serine/threonine-protein kinase (P31749 whole entry): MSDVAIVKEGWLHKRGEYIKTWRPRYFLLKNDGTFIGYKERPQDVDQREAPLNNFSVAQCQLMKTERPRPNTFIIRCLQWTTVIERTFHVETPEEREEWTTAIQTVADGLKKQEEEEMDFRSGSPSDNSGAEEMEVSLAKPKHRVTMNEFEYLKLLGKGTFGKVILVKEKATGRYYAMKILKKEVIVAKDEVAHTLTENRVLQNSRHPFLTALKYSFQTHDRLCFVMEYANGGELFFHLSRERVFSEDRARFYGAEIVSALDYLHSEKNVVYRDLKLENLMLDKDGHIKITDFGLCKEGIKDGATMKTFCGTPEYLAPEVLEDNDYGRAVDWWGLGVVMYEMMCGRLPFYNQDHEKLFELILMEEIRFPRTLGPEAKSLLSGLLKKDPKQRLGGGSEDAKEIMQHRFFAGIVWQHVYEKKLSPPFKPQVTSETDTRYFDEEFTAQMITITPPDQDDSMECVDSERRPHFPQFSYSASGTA
T1 sequence (Q9Y243 whole entry): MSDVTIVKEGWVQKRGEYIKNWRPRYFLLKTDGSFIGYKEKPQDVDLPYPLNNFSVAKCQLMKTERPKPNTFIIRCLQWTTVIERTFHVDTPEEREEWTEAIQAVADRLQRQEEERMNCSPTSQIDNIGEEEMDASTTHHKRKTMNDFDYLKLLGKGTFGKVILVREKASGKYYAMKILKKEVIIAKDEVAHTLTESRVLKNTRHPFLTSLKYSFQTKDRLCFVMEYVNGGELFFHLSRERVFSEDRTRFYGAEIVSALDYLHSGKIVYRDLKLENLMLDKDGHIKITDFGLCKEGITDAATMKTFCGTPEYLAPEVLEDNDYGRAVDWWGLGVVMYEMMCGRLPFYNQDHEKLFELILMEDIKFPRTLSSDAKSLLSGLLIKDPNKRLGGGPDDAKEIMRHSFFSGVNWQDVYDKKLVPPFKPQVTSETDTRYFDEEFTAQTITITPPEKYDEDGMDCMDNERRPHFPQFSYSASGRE
Sequence of RAC-beta serine/threonine-protein kinase (P31751 whole entry): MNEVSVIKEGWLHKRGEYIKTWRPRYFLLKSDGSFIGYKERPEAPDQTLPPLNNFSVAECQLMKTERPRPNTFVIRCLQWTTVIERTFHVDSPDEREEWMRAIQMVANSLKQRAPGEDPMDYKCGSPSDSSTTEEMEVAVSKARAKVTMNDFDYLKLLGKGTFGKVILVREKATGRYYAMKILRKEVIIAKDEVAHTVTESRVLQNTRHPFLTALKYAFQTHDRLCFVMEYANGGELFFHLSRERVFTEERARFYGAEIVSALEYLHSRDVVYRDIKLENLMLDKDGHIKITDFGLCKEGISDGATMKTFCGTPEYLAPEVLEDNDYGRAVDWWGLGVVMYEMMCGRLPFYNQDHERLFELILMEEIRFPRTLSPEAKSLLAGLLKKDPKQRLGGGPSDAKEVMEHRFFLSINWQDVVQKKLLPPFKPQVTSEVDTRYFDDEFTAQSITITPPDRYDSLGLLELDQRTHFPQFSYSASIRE
Sequence of Epidermal growth factor receptor (Homo sapiens, UniProt P00533) (P00533 whole entry): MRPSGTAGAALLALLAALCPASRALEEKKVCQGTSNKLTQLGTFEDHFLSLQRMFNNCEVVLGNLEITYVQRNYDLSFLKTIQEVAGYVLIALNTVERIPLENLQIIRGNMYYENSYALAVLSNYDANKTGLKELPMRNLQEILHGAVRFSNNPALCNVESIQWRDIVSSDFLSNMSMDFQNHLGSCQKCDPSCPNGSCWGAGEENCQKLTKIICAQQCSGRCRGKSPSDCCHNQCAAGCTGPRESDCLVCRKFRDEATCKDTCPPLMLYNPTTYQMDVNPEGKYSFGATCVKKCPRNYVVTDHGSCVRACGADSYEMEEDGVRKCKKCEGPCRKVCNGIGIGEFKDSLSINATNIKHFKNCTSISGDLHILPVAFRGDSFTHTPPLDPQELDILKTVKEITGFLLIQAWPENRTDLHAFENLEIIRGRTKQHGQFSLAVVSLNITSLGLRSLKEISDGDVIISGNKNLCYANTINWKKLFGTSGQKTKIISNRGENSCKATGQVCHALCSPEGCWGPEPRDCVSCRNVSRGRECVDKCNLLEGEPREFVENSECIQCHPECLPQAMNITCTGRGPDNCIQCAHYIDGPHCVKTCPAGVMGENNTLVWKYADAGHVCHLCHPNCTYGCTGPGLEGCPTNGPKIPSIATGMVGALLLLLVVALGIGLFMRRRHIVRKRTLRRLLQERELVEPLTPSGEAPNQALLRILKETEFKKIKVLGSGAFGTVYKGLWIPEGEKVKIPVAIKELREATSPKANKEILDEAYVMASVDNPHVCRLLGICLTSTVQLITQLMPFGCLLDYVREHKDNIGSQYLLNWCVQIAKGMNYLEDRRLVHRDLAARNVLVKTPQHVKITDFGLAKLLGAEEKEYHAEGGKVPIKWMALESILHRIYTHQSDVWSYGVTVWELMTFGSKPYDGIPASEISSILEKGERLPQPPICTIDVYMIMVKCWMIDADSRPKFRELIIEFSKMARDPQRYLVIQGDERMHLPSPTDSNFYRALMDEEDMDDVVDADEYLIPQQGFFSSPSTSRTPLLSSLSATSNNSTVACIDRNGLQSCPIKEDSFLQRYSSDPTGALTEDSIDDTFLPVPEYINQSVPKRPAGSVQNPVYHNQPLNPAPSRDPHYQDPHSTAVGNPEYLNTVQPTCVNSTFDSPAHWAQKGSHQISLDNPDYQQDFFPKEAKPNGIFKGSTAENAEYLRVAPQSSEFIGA

Row | SMILES | Emax [1] [%] | EC50 [2] [µM] | EC50 [3] [µM] | EC50 [4] [µM] | IC50 [5] [µM] | EC50 [6] [µM] | Activity [7] | Activity [8] | EC50 [9] [µM]
1 | C=CC(=O)Nc1cccc(-n2c(=O)cc(C)c3cnc(Nc4ccc(N5CCN(CCCCCCCCCCNC(=O)CC67CC8CC(CC(C8)C6)C7)CC5)cc4OC)nc32)c1 | 51 | > 1 | 0.402 | > 1 |  |  |  |  | 
2 | C=CC(=O)Nc1cccc(-n2c(=O)cc(C)c3cnc(Nc4ccc(N5CCN(CCCCCCNC(=O)CC67CC8CC(CC(C8)C6)C7)CC5)cc4OC)nc32)c1 |  | > 1 | 1 | > 1 |  |  |  |  | 
3 | C[C@@H]1CC(O)c2ncnc(N3CCN(C(=O)[C@H](CNCCCCCCCCCCc4cccc5c4C(=O)N(C4CCC(=O)NC4=O)C5=O)c4ccc(Cl)cc4)CC3)c21 (mixture of isomers) |  |  |  |  | 2.42 |  |  |  | 
4 | CC(C)NC[C@@H](C(=O)N1CCN(c2ncnc3c2[C@H](C)C[C@H]3O)CC1)c1ccc(Cl)cc1 [IPATASERTIB] |  |  |  |  | > 20 |  |  |  | 
5 | CCC(=O)Nc1cccc(-n2c(=O)cc(C)c3cnc(Nc4ccc(N5CCN(CCCCCCCCCCCCNC(=O)CC67CC8CC(CC(C8)C6)C7)CC5)cc4OC)nc32)c1 | 74 | > 1 | 0.034 | > 1 |  |  |  |  | 
6 | COc1cc(N2CCN(CCCCCCCCCCCCNC(=O)CC34CC5CC(CC(C5)C3)C4)CC2)ccc1Nc1ncc2c(C)cc(=O)n(-c3cccc(N)c3)c2n1 | 77 | > 1 | 0.102 | > 1 |  |  |  |  | 
7 | COc1cc(N2CCN(CCCCCCCCCCCCNC(=O)CC34CC5CC(CC(C5)C3)C4)CC2)ccc1Nc1ncc2c(C)cc(=O)n(-c3cccc(NC(=O)C(C)C)c3)c2n1 | 71 | > 1 | 0.033 | > 1 |  | 0.143 |  |  | 
8 | C#CCN(CCCCCCCCCCCCN1CCN(c2ccc(Nc3ncc4c(C)cc(=O)n(-c5cccc(NC(=O)C6CC6)c5)c4n3)c(OC)c2)CC1)C(=O)CC12CC3CC(CC(C3)C1)C2 |  |  |  |  |  |  | Active | Active | 
9 | C=CC(=O)Nc1cccc(-n2c(=O)cc(C)c3cnc(Nc4ccc(N5CCN(C)CC5)cc4OC)nc32)c1 |  | > 1 | > 1 | > 1 |  |  |  |  | 
10 | C=CC(=O)Nc1cccc(-n2c(=O)cc(C)c3cnc(Nc4ccc(N5CCN(CCCCCCCCCCCCNC(=O)CC67CC8CC(CC(C8)C6)C7)CC5)cc4OC)nc32)c1 | 73 | > 1 | 0.052 | > 1 |  |  |  |  | 0.0201
